Assay results as given in patent US12559529B2, “NPY2 receptor agonists” (Boehringer Ingelheim International GmbH, priority 2019, dated 2026).

Key:
[1] = target: T1, Human Neuropeptide Y2 Receptor (Homo sapiens, UniProt P49146); assay: Radioligand binding competition assay (RLB)
T1 construct: purchased CHEMICON HTS066M
T1 sequence (P49146 1-381): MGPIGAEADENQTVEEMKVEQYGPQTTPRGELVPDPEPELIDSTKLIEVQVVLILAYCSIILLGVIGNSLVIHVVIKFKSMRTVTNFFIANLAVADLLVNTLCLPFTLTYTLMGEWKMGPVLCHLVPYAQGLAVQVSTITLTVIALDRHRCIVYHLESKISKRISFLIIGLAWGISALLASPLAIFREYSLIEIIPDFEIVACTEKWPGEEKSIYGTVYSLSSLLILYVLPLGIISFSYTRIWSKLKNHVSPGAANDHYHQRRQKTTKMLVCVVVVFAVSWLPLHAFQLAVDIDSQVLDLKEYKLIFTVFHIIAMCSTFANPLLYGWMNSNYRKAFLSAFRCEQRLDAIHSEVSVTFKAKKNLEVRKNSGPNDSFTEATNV
In short: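 Filtration format; Y2R membrane prep 0.5 μg/well; buffer 50 mM HEPES/5 mM MgCl2/1 mM CaCl2/0.2% ovalbumin pH 7.4; 2 h RT, shaking. Harvest on PEI-soaked GF/C, ice-cold HEPES/500 mM NaCl washes, scintillation count. IC50 by nonlinear fit.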

human NPY1 receptor = target: T2, human NPY1 receptor (Homo sapiens, UniProt P25929); assay: HTRF cAMP Gi assay, hY1R; format: cell-based; details: Table 4; CHO-K1 cells
T2 construct: expressed in transfected cells; host or cells: CHO-K1
T2 sequence (P25929 1-384): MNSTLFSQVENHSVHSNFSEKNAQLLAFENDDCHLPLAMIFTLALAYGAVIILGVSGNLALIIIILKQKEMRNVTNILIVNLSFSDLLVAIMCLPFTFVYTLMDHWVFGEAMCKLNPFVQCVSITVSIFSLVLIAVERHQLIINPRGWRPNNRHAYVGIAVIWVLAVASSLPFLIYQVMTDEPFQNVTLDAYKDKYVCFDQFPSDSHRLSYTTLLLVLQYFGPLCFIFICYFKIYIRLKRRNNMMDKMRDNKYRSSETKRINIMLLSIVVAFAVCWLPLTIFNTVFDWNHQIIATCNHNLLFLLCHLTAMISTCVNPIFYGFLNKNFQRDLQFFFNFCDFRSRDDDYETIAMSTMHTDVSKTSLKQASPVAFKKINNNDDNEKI

human NPY4 receptor = target: T3, human NPY4 receptor (Homo sapiens, UniProt P50391); assay: HTRF cAMP Gi assay, hY4R; format: cell-based; details: Table 4; CHO-K1 cells
T3 construct: expressed in transfected cells; host or cells: CHO-K1
Description: (§1) The Homogenous Time Resolved fluorescence (HTRF) technology optimized for Gi coupled receptors has thoroughly been described in Cisbio cAMP Gi kit manual. Briefly, the production of intracellular cAMP will generate a competition between unlabeled cAMP and exogenously added d2-cAMP for anti-cAMP antibodies conjugated to cryptate. CHO-K1 cells stably expressing the human NPY1, NPY2, NPY4 and NPY5 receptors were used with the cells brought to life from a frozen stock immediately before assay performance. 2000 cells per well were applied for all four NPY receptor subtype assays. A 384-well format was used applying a total volume of 20 μl using 5 μl cells, 2.5 μl peptide agonist, 2.5 μl forskolin and 5 μl of each of the fluorophores. […] Concentration-response evaluation of compounds was performed with 11 concentrations of agonist peptides (covering 3 decades). EC50 values were calculated by nonlinear regression using sigmoid concentration-response with variable slope.

[2] = target: T1, Human Neuropeptide Y2 Receptor; assay: Activity (RLB) after incubation in solutions at different pH values; format: binding; details: apparent Ki of filtrate after 2 h in buffer
Experimental: The filtration RLB assay was carried out in 96-well plates in a final volume of 100 μl per well. Freeze-dried test peptides were dissolved in 100% dimethyl sulfoxide (DMSO) to stock solutions of 1 mM and serial dilutions were performed in assay buffer (50 mM HEPES, 5 mM MgCl2, 1 mM CaCl2), pH 7.4) containing 0.2% ovalbumin. […] Next, 80 μL membranes (HTS066M, ChemiSCREEN™ Human Neuropeptide Y2 Receptor Membrane Preparation, CHEMICON) were added to each well to give a final protein concentration of 0.5 μg/well. The plates were sealed and incubated at room temperature for 2 hours in a plate shaker set at 400 rpm. The incubation was stopped by vacuum filtration onto 0.5% poly-ethylene amine (PEI) presoaked GF/C filters using a 96-well FilterMate™ harvester (Perkin Elmer) followed by four washes with 300 μl/well ice-cold wash buffer (50 mM HEPES, 500 mM NaCl, pH7.4). Filter plates were then dried for 60 min at room temperature and the bottom of the plates was sealed with backing tape UniFilter-96. Finally, 50 μl/well scintillation counter cocktail (Microscint20, Packard) was added and the radioactivity was counted in the Packard TopCount NXT scintillation counter. IC50 values (the half maximal inhibitory concentration of the agonist) were calculated by nonlinear regression analysis of sigmoidal dose-response curves.
Peptides (as TFA salts) were weighed out in a filter unit (Mini-UniPrep Syringeless Filter 0.45 μm, Whatman), and 0.1 M sodium diphosphate buffer at pH 6.4 or 7.4, respectively, or 0.2 M TRIS buffer at pH 8.3 was added to achieve 10 mg/ml final concentration. The peptide was (partially) dissolved by shaking the filter unit horizontally at approx. 400 rpm for 2 hours at room temperature. The sample was filtered to remove any insoluble particles.

human NPY2 receptor = target: T4, human NPY2 receptor (Homo sapiens, UniProt P49146); assay: HTRF cAMP Gi assay, hY2R
T4 sequence (P49146 1-381): T1 sequence (P49146 1-381)

human NPY5 receptor = target: T5, human NPY5 receptor (Homo sapiens, UniProt Q15761); assay: HTRF cAMP Gi assay, hY5R
T5 sequence (Q15761 1-445): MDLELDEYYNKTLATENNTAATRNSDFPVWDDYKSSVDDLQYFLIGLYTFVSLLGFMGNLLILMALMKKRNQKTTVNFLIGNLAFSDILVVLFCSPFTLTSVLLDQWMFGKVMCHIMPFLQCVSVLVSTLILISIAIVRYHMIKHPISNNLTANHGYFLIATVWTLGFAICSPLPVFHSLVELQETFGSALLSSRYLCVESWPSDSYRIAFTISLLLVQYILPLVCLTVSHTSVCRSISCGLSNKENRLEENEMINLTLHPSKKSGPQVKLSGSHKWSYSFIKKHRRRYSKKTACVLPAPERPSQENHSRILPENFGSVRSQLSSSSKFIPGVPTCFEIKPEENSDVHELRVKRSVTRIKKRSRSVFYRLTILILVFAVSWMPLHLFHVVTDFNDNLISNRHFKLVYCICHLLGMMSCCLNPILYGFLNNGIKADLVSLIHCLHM
Description: as §1

[3] = Table 3, human 125I-PYY (1-36) 0.02 nM, Y2 receptor membranes, read-out: Ki
[4] = Table 8, from DMSO stock, read-out: hY2R RLB Ki (nM) DMSO
[5] = pH6.1-6.2, assumed 10 mg/ml, read-out: RLB 6 (pH6.1-6.2)
[6] = pH7.1-7.2, assumed 10 mg/ml, read-out: RLB 7 (pH7.1-7.2)
[7] = pH8.1-8.2, assumed 10 mg/ml, read-out: RLB 8 (pH8.1-8.2)

T3 sequence (P50391 whole entry): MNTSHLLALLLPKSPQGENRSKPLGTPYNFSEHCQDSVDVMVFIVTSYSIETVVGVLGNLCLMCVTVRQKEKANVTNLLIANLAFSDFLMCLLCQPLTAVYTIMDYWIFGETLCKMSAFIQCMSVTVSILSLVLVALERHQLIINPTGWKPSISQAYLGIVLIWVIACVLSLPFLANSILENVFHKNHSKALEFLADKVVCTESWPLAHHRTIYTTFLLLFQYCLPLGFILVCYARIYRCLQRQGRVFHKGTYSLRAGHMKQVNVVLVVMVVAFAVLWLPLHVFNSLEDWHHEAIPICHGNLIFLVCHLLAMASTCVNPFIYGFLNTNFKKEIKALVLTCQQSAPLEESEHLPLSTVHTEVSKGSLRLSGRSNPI

For `CC[C@H](C)[C@H](NC(=O)[C@H](CCC(=O)O)NC(=O)[C@H](CCC(=O)O)NC(=O)[C@@H]1CCCN1C(=O)[C@H](CO)NC(=O)[C@H](C)NC(=O)[C@H](CC(=O)O)NC(=O)[C@H](CCC(=O)O)NC(=O)[C@H](CCC(=O)O)NC(=O)[C@@H]1CCCN1C(=O)[C@H](CCCCNC(=O)COCCOCCNC(=O)COCCOCCNC(=O)CC[C@H](NC(=O)CCCCCCCCCCCCCCCCC(=O)O)C(=O)O)NC(=O)[C@H](C)NC(=O)[C@@H]1CCCN1C(=O)[C@H](C)NC(=O)CC(C)C)C(=O)N[C@@H](CCC(N)=O)C(=O)N[C@@H](CCCNC(=N)N)C(=O)N[C@@H](Cc1ccc(O)cc1)C(=O)N[C@@H](Cc1ccc(O)cc1)C(=O)N[C@H](C(=O)N[C@@H](CO)C(=O)N[C@@H](CC(C)C)C(=O)N[C@@H](CCCNC(=N)N)C(=O)N[C@@H](Cc1c[nH]cn1)C(=O)N[C@@H](Cc1ccc(O)cc1)C(=O)N[C@@H](Cc1ccc(O)cc1)C(=O)N[C@@H](CC(N)=O)C(=O)N[C@@H](Cc1c[nH]c2ccccc12)C(=O)N[C@@H](CC(C)C)C(=O)N[C@H](C(=O)N[C@@H](CCCNC(=N)N)C(=O)N[C@@H](CCC(N)=O)C(=O)N[C@@H](CCCNC(=N)N)C(=O)N[C@@H](Cc1ccc(O)cc1)C(N)=O)[C@@H](C)O)C(C)C` [Compound 23, N{alpha-4}-(3-methylbutanoyl)-N{epsilon-7}-[2-(2-{2-[2-(2-{2-[(4S)-4-carboxy-4-(17-carboxyheptadecanamido)butanamido]ethoxy}ethoxy)acetamido]ethoxy}ethoxy)acetamido]-[4A,6A,7K,9E,17I,18Q,22V,28Y,30W,31L]hPYY (4-36)], the Ki [1, 3] was 0.63 nM, the Ki [1, 4] was 4.9 nM and the EC50 (human NPY1 receptor) was over 5000 nM. The EC50 (human NPY4 receptor) was over 5000 nM, the Ki [2, 5] was 6.3 nM and the Ki [2, 6] was 6.3 nM. It also gave a Ki [2, 7] of 6.3 nM, an EC50 (human NPY2 receptor) of 0.15 nM and an EC50 (human NPY5 receptor) of over 5000 nM.

`CC[C@H](C)[C@H](NC(=O)[C@H](CCC(=O)O)NC(=O)[C@H](CCC(=O)O)NC(=O)[C@@H]1CCCN1C(=O)[C@H](CO)NC(=O)[C@H](C)NC(=O)[C@H](CC(=O)O)NC(=O)[C@H](C)NC(=O)[C@H](CCC(=O)O)NC(=O)[C@@H]1CCCN1C(=O)[C@H](CCCCNC(=O)COCCOCCNC(=O)COCCOCCNC(=O)CC[C@H](NC(=O)CCCCCCCCCCCCCCCCC(=O)O)C(=O)O)NC(=O)[C@H](CCC(=O)O)NC(=O)[C@@H]1CCCN1C(=O)[C@H](C)NC(=O)CC(C)C)C(=O)N[C@@H](CCC(N)=O)C(=O)N[C@@H](CCCNC(=N)N)C(=O)N[C@@H](Cc1ccc(O)cc1)C(=O)N[C@@H](Cc1ccc(O)cc1)C(=O)N[C@H](C(=O)N[C@@H](CO)C(=O)N[C@@H](CC(C)C)C(=O)N[C@@H](CCCNC(=N)N)C(=O)N[C@@H](Cc1c[nH]cn1)C(=O)N[C@@H](Cc1ccc(O)cc1)C(=O)N[C@@H](Cc1ccc(O)cc1)C(=O)N[C@@H](CC(N)=O)C(=O)N[C@@H](Cc1c[nH]c2ccccc12)C(=O)N[C@@H](CC(C)C)C(=O)N[C@H](C(=O)N[C@@H](CCCNC(=N)N)C(=O)N[C@@H](CCC(N)=O)C(=O)N[C@@H](CCCNC(=N)N)C(=O)N[C@@H](Cc1ccc(O)cc1)C(N)=O)[C@@H](C)O)C(C)C` [Compound 53, N{alpha-4}-(3-methylbutanoyl)-N{epsilon-7}-[2-(2-{2-[2-(2-{2-[(4S)-4-carboxy-4-(17-carboxyheptadecanamido)butanamido]ethoxy}ethoxy)acetamido]ethoxy}ethoxy)acetamido]-[4A,7K,9E,10A,17I,18Q,22V,28Y,30W,31L]hPYY (4-36)] was tested, and the Ki [1, 3] was 0.24 nM, the Ki [1, 4] was 2 nM and the EC50 (human NPY1 receptor) was over 5000 nM. The EC50 (human NPY4 receptor) was over 5000 nM, the Ki [2, 5] was 3.4 nM and the Ki [2, 6] was 3.1 nM. For the same molecule, the Ki [2, 7] was 2.5 nM, the EC50 (human NPY2 receptor) was 0.119 nM and the EC50 (human NPY5 receptor) was over 5000 nM.

With `CC(C)CC(=O)N[C@@H](C)C(=O)N1CCC[C@H]1C(=O)N[C@@H](C)C(=O)N[C@@H](CCCCNC(=O)COCCOCCNC(=O)COCCOCCNC(=O)CC[C@H](NC(=O)CCCCCCCCCCCCCCCCC(=O)O)C(=O)O)C(=O)N1CCC[C@H]1C(=O)N[C@@H](CCC(=O)O)C(=O)N[C@@H](CCC(=O)O)C(=O)N[C@@H](CC(=O)O)C(=O)N[C@@H](C)C(=O)N[C@H](C(=O)N1CCC[C@H]1C(=O)N[C@@H](CCC(=O)O)C(=O)N[C@@H](CCC(=O)O)C(=O)N[C@@H](CC(C)C)C(=O)N[C@@H](CCC(N)=O)C(=O)N[C@@H](CCCNC(=N)N)C(=O)N[C@@H](Cc1ccc(O)cc1)C(=O)N[C@@H](Cc1ccc(O)cc1)C(=O)N[C@H](C(=O)N[C@@H](CO)C(=O)N[C@@H](CC(C)C)C(=O)N[C@@H](CCCNC(=N)N)C(=O)N[C@@H](Cc1c[nH]cn1)C(=O)N[C@@H](Cc1ccc(O)cc1)C(=O)N[C@@H](Cc1ccc(O)cc1)C(=O)N[C@@H](CC(N)=O)C(=O)N[C@@H](Cc1c[nH]c2ccccc12)C(=O)N[C@@H](CC(C)C)C(=O)N[C@H](C(=O)N[C@@H](CCCNC(=N)N)C(=O)N[C@@H](CCC(N)=O)C(=O)N[C@@H](CCCNC(=N)N)C(=O)N[C@@H](Cc1ccc(O)cc1)C(N)=O)[C@@H](C)O)C(C)C)[C@@H](C)O` [Compound 106, N{alpha-4}-(3-methylbutanoyl)-N{epsilon-7}-[2-(2-{2-[2-(2-{2-[(4S)-4-carboxy-4-(17-carboxyheptadecanamido)butanamido]ethoxy}ethoxy)acetamido]ethoxy}ethoxy)acetamido]-[4A,6A,7K,9E,13T,18Q,22V,28Y,30W,31L]hPYY (4-36)] the Ki [1, 3] was 0.66 nM, the Ki [1, 4] was 6 nM and the EC50 (human NPY1 receptor) was over 5000 nM. The EC50 (human NPY4 receptor) was over 5000 nM, the Ki [2, 5] was 7.7 nM and the Ki [2, 6] was 9.3 nM. It also gave a Ki [2, 7] of 7.5 nM, an EC50 (human NPY2 receptor) of 0.173 nM and an EC50 (human NPY5 receptor) of over 5000 nM.
